Our source for the IC50 values is ChEMBL document CHEMBL4828721, “Substituted dienes prepared from betulinic acid - Synthesis, cytotoxicity, mechanism of action, and pharmacological parameters” (Eur J Med Chem, 2021).

pIC50: −log10 of the molar value.

The subject of experiment [1] is MRC5. In words: Cytotoxicity against human MRC5 cells assessed as reduction in cell viability measured after 72 hrs by MTS assay. The note with it: MRC5, 72 h. The class given is cell-based.
Experiment [2] has as its system BJ. In words: Cytotoxicity against human BJ cells assessed as reduction in cell viability measured after 72 hrs by MTS assay. The format is cell-based.
Experiment [3] relates to U2OS. Description: Cytotoxicity against human U2OS cells assessed as reduction in cell viability measured after 72 hrs by MTS assay. The class given is functional, cell-based.
Experiment [4] has as its system A549. Description: Cytotoxicity against human A549 cells assessed as reduction in cell viability measured after 72 hrs by MTS assay. The note with it: A549, 72 h. The format is functional, cell-based.
Experiment [5] has as its system K562. In words: Cytotoxicity against human K562 cells assessed as reduction in cell viability measured after 72 hrs by MTS assay. The class given is functional, cell-based. To be noted: K562, 72 h.
Experiment [6] deals with CCRF-CEM. Description: Cytotoxicity against human CCRF-CEM cells assessed as reduction in cell viability measured after 72 hrs by MTS assay. The format is functional, cell-based.
In experiment [7] the test system is HCT-116. Description: Cytotoxicity against human HCT-116 cells assessed as reduction in cell viability measured after 72 hrs by MTS assay. To be noted: HCT-116, 72 h. The class given is functional, cell-based.
The nature of experiment [8]: Cytotoxicity against human HCT116 p53-null cells assessed as reduction in cell viability measured after 72 hrs by MTS assay. The class given is functional, cell-based.
A short description of experiment [9]: Cytotoxicity against paclitaxel resistant human K562-Tax cells assessed as reduction in cell viability measured after 72 hrs by MTS assay. The format is functional, cell-based.
Experiment [10] has as its system CEM-DNR. Description: Cytotoxicity against daunorubicin resistant human CEM-DNR cells assessed as reduction in cell viability measured after 72 hrs by MTS assay. The format is functional, cell-based.

With `C=C(/C=C/c1ccccc1[N+](=O)[O-])[C@@H]1CC[C@]2(C(=O)O)CC[C@]3(C)[C@H](CC[C@@H]4[C@@]5(C)CC[C@H](O)C(C)(C)[C@@H]5CC[C@]43C)[C@@H]12`, the pIC50 in experiment [1] is < 4.30; in [2], < 4.30; in [3], 4.48; in [4], 4.34; in experiment [5] it was < 4.30; in [6] it was 4.63. Besides, the pIC50 is 4.46 in experiment [7], 4.41 in experiment [8], 4.53 in experiment [9] and 4.51 in [10].
Turning to `C=C(/C=C/c1cccc(OC)c1)[C@@H]1CC[C@]2(C(=O)O)CC[C@]3(C)[C@H](CC[C@@H]4[C@@]5(C)CC[C@H](O)C(C)(C)[C@@H]5CC[C@]43C)[C@@H]12`, the pIC50 in [1] was 4.36; in [2], < 4.30; in experiment [3], 4.60; in experiment [4], 4.40; in experiment [5], 4.38; in experiment [6], 5.34. In addition, the pIC50 is 4.46 in [7], 4.40 in [8], 4.59 in experiment [9] and 4.51 in experiment [10].
As to `C=C(/C=C/c1cccc(F)c1)[C@@H]1CC[C@]2(C(=O)O)CC[C@]3(C)[C@H](CC[C@@H]4[C@@]5(C)CC[C@H](O)C(C)(C)[C@@H]5CC[C@]43C)[C@@H]12`, the pIC50 is 4.49 in [1]; 4.38 in [2]; 4.56 in experiment [3]; 4.54 in [4]; 4.67 in experiment [5]; 4.93 in experiment [6]. In addition, the negative logarithm of the IC50 (pIC50) was 4.64 in experiment [7], 4.68 in experiment [8], 4.66 in [9] and 4.64 in [10].
Take `C=C(/C=C/c1ccccc1Br)[C@@H]1CC[C@]2(C(=O)O)CC[C@]3(C)[C@H](CC[C@@H]4[C@@]5(C)CC[C@H](O)C(C)(C)[C@@H]5CC[C@]43C)[C@@H]12`: the pIC50 was 4.45 in [1]; 4.33 in experiment [2]; 4.56 in experiment [3]; 4.54 in experiment [4]; 4.67 in [5]; 4.77 in [6]. In addition, the pIC50 was 4.57 in experiment [7], 4.61 in experiment [8], 4.32 in experiment [9] and 4.31 in [10].
For the molecule `C=C(/C=C/c1cccc(C(F)(F)F)c1)[C@@H]1CC[C@]2(C(=O)O)CC[C@]3(C)[C@H](CC[C@@H]4[C@@]5(C)CC[C@H](O)C(C)(C)[C@@H]5CC[C@]43C)[C@@H]12`, the pIC50 is 4.37 in experiment [1]; < 4.30 in experiment [2]; 4.61 in experiment [3]; 4.45 in experiment [4]; 4.58 in experiment [5]; 5.10 in experiment [6]. Also, the pIC50 is 4.64 in experiment [7], 4.61 in [8], 4.60 in experiment [9] and 4.55 in experiment [10].
Regarding `C=C(/C=C/c1cccc(C)c1)[C@@H]1CC[C@]2(C(=O)O)CC[C@]3(C)[C@H](CC[C@@H]4[C@@]5(C)CC[C@H](O)C(C)(C)[C@@H]5CC[C@]43C)[C@@H]12`, the pIC50 in [1] is 4.37; in experiment [2], < 4.30; in experiment [3] it was 4.74; in experiment [4], 4.44; in [5], 4.60; in experiment [6], 5.02. For the same molecule, the pIC50 was 4.61 in [7], 4.65 in experiment [8], 4.63 in experiment [9] and 4.67 in [10].
As to `C=CC(=C)[C@@H]1CC[C@]2(C(=O)O)CC[C@]3(C)[C@H](CC[C@@H]4[C@@]5(C)CC[C@H](O)C(C)(C)[C@@H]5CC[C@]43C)[C@@H]12`, the pIC50 in experiment [1] is 4.61; in [2], 4.35; in [3], 4.62; in experiment [4] it was 4.62; in [5], 4.80; in experiment [6] it was 4.95. The pIC50 in experiment [7] was 4.62; in experiment [8] it was 4.61; in [9], 4.58; in experiment [10], 4.60.
